# Experimental data taken from ChEMBL document CHEMBL4229400, “Covalent inhibitors of nicotinamide N-methyltransferase (NNMT) provide evidence for target engagement challenges in situ” (Bioorg Med Chem Lett, 2018).
# The source made the active and inactive calls. The rule behind the calls is not given here.
# Key:
# [1] = molecular target: T1, Nicotinamide N-methyltransferase (Homo sapiens, UniProt P40261); test: Inhibition of NNMT in human 786-O cell lysate using d4-nicotinamide as substrate preincubated for 1 hr followed by substrate and SAM addition measured after 15 to 30 mins by LC-MS analysis
# T1 sequence (P40261 whole entry): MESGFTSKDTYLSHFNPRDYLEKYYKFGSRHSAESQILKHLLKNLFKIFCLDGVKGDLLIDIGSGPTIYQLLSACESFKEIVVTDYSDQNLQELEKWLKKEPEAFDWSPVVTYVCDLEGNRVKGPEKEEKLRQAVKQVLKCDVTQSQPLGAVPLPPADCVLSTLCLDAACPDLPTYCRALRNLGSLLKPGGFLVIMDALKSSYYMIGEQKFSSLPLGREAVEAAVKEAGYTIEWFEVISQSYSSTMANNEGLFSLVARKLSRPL
# [2] = molecular target: T2, Glutathione S-transferase omega-1 (Homo sapiens) (UniProt P78417); test: Binding affinity to GSTO1 cysteine residue in human 786-O cell soluble proteomic lysate at 5 uM incubated for 1 hr followed by cell lysis by IA-alkyne probe based isoTOP-ABPP analysis
# T2 sequence (whole entry): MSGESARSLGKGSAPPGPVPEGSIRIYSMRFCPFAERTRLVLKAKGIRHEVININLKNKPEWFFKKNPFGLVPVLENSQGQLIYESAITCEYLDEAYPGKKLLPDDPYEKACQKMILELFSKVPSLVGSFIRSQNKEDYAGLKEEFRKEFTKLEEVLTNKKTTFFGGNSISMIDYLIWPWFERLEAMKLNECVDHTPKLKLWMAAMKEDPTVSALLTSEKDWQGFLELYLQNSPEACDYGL
# [3] = molecular target: T3, Aldehyde dehydrogenase 1A1 (Homo sapiens) (UniProt P00352); test: Binding affinity to ALDH1A1 cysteine residue in human 786-O cell soluble proteomic lysate at 5 uM incubated for 1 hr followed by cell lysis by IA-alkyne probe based isoTOP-ABPP analysis
# T3 sequence (whole entry): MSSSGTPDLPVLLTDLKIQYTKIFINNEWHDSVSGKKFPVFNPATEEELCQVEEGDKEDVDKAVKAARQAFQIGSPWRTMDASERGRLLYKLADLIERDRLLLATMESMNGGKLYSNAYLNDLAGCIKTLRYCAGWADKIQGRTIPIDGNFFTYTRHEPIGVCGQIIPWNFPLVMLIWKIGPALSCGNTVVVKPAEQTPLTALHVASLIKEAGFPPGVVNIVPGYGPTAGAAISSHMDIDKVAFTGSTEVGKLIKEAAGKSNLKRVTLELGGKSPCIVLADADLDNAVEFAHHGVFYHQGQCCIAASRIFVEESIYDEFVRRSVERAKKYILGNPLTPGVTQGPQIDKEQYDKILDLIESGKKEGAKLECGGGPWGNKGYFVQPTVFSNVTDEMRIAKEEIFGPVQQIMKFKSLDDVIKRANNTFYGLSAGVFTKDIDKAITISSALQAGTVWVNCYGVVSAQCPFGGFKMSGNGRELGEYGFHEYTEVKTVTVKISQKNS
# [4] = molecular target: T4, Thioredoxin domain-containing protein 17 (Homo sapiens) (UniProt Q9BRA2); test: Binding affinity to TXNDC17 cysteine residue in human 786-O cell soluble proteomic lysate at 5 uM incubated for 1 hr followed by cell lysis by IA-alkyne probe based isoTOP-ABPP analysis
# T4 sequence (whole entry): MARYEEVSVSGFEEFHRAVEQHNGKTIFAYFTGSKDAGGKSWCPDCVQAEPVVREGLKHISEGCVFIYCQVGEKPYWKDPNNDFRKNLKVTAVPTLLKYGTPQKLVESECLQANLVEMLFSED
# [5] = molecular target: T5, Nicotinamide N-methyltransferase (Homo sapiens) (UniProt P40261); test: Binding affinity to NNMT C165 residue in human 786-O cell soluble proteomic lysate at 1 to 5 uM incubated for 1 hr followed by cell lysis by IA-alkyne probe based isoTOP-ABPP analysis
# T5 sequence (whole entry): T1 sequence (P40261 whole entry)
# [6] = molecular target: T6, Heme oxygenase 2 (Homo sapiens) (UniProt P30519); test: Binding affinity to HMOX2 cysteine residue in human 786-O cell soluble proteomic lysate at 5 uM incubated for 1 hr followed by cell lysis by IA-alkyne probe based isoTOP-ABPP analysis
# T6 sequence (whole entry): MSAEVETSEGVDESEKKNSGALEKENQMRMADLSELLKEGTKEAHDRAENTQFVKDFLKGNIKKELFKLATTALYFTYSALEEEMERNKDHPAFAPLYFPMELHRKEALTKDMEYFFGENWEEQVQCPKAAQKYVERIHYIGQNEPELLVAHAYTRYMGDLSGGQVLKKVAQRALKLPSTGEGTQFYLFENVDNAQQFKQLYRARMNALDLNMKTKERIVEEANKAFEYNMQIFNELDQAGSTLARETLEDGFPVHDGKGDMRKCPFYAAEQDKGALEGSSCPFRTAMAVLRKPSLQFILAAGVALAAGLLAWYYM
# [7] = molecular target: T5, Nicotinamide N-methyltransferase (Homo sapiens); test: (§1) Inhibition of SAH-rhodamine binding to NNMT in human 786-O cell soluble proteomic lysate preincubated for 1 hr followed by SAH-rhodamine addition measured after 5 mins by Gel-based ABPP analysis
# [8] = molecular target: T1, Nicotinamide N-methyltransferase; test: as §1
# [9] = molecular target: T5, Nicotinamide N-methyltransferase (Homo sapiens); test: Binding affinity to NNMT C165 residue in human 786-O cell lysate at 5 uM incubated for 4 hrs followed by cell lysis by IA-alkyne probe based isoTOP-ABPP analysis
# [10] = molecular target: T7, Mitochondrial-processing peptidase subunit alpha (Homo sapiens) (UniProt Q10713); test: Binding affinity to PMPCA cysteine residue in human 786-O cell soluble proteomic lysate at 5 uM incubated for 1 hr followed by cell lysis by IA-alkyne probe based isoTOP-ABPP analysis
# T7 sequence (whole entry): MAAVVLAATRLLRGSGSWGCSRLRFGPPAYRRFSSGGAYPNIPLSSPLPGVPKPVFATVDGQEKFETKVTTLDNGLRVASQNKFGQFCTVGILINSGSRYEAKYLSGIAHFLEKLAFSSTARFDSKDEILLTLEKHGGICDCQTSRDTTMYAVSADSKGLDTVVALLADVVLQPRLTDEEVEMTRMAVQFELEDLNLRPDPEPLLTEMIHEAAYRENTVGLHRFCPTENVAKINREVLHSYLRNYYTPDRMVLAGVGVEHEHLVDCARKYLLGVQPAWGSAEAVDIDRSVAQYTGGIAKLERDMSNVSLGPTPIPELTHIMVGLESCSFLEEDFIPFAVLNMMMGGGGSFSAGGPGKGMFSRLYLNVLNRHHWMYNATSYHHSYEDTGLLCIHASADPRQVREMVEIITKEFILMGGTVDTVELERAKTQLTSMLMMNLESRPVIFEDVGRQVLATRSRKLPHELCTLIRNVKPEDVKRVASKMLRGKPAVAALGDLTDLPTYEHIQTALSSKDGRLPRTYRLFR
IC50 [1] [µM],Activity [2],Activity [3],Activity [4],Activity [5],Activity [6],inhibition [7],IC50 [8] [µM],Activity [9],Activity [10],Compound
0.18,Active,Active,Active,Active,Active,Dose-dependent effect,0.35,inactive,–,CC(C)CCN(C(=O)CCl)c1cc(C(=O)NCc2cccc([N+](=O)[O-])c2)cc(C(F)(F)F)c1
17,–,Active,–,–,Active,–,22,–,Active,O=C(Nc1cccnc1Cl)c1cc(N(CCCc2ccccc2)C(=O)CCl)cc(C(F)(F)F)c1
